# Experimental data published in article PMC8480901 (PLoS ONE, 2021).
# “And” between values parts separate entries of the source, which are not always exact repeats. Equal values may be shown once. Read-outs that look alike come from different tables or passages of the source.
# Key:
# [1] = Pharmacokinetics in plasma and epithelial lining fluid of mice after a single SC dose; type: in vivo, BALB/c mice; details: mice; for AUC(0-t): read-out: AUC0-24h, mean±SEM; for Cmax: read-out: Cmax, mean±SEM
# Description: Pharmacokinetic parameters were evaluated as previously described. […] Plasma samples were analyzed by liquid chromatography with […] mass spectrometry (Q Exactive Plus; Thermo Fisher Scientific).
# Area under the curve (AUC) values were determined using the linear trapezoidal method.
# human neutrophils = experiment: Cytotoxicity in human neutrophils (CellTiter Glo); type: cell-based; details: ≤100 μM, cytotoxic if reduction from vehicle ≥20%
# Description: For the chemotaxis and cytotoxicity evaluations, average relative light unit values were calculated from all untreated vehicle samples and, for each sample, percentage of vehicle value was calculated. The tested compound was considered cytotoxic if reduction from untreated vehicle was ≥20%.
# J774.2 mouse macrophages = experiment: Cytotoxicity in J774.2 mouse macrophages (adenylate kinase release, ToxiLight); type: cell-based; details: J774.2 cells; 100 μM
# Description: The effect of t est compounds on cell viabilit y of J 774.2 macrophages and human PBMCs […]
# was determined b y comp aring th e aden yl ate kinas e signal obtain ed in the p resence of diff er ent concentrations of compounds with those obtained in DMSO (vehicle) control. Signals were […]
# divided,and the results were ex pressed as fold-change versus v ehicle con trol .
# [2] = cited from earlier work
# [3] = tested on: TNF-α, IL-6, IL-1β, GM-CSF, CXCL-1, CXCL-2, CCL-2 and MMP-9 in lung tissue; experiment: LPS-induced cytokines, chemokines and MMP-9 in mouse lung homogenates (Luminex, ELISA); details: for CCL2 % reduction / CXCL1 % reduction / CXCL2 % reduction / GM-CSF % reduction / IL-1β % reduction / IL-6 % reduction / MMP9 % reduction / TNFα % reduction / CCL2 / CXCL1 / CXCL2 / GM-CSF / IL-1β / IL-6 / MMP9 / TNFα / CCL2 Mean / CXCL1, Mean / CXCL2, Mean / GM-CSF Mean / IL-1β Mean / IL-6 Mean / MMP9, Mean / TNFα Mean: lung homogenate, LPS; for CCL2 / CXCL1 / CXCL2 / GM-CSF / IL-1β / IL-6 / MMP9 / TNFα: individual animal, listed as Azi; for CCL2 Mean / CXCL1, Mean / CXCL2, Mean / GM-CSF Mean / IL-1β Mean / IL-6 Mean / MMP9, Mean / TNFα Mean: mean of 8
# Description: To induce pulmonary neutrophilia, mice in the control group received intranasal (IN) 50 μL saline, and all other animals received 5 μg LPS/50 μL saline IN per mouse.
# After bronchoalveolar lavage, lungs were removed, weighed, snap frozen, and stored at −80°C until analysis. To homogenize the tissue, the frozen lungs were thawed and placed in Precellys CK28 Hard Tissue tubes (BERTIN Instruments, Montigny-le-Bretonneux, France) in 1 mL PBS (Gibco, Life Technologies, Paisley, UK) supplemented with protease inhibitors (Halt™ Protease Inhibitor Cocktail [100×]; Thermo Fisher Scientific, Rockford, IL, USA). A Precellys homogenizer (BERTIN Instruments) was used, shaking at 6800 rpm for three 30-second pulses separated by 15-second pauses. After homogenization, samples were centrifuged at 18,000×g for 10 minutes at 4°C, and the supernatants were collected for analysis.
# Concentrations of tumor necrosis factor (TNF)-α, IL-6, granulocyte-macrophage colony-stimulating factor (GM-CSF), chemokine (C-X-C motif) ligand (CXCL)-1, CXCL-2, and chemokine (C-C motif) ligand (CCL)-2 in mouse lung homogenates were analyzed with the Mouse Premixed Multi-Analyte Kit (R&D Systems, Minneapolis, MN, USA) per the manufacturer’s protocol and using a Luminex 200 System (Luminex Corporation, Austin, TX, USA). Cytokine and chemokine concentrations were determined from blank-corrected median fluorescence intensity of each sample via xPONENT® software (Luminex Corporation), interpolating from standard curves generated with a 5-parameter logistic curve-fit.
# Mouse Total MMP (matrix metalloprotease)-9 and IL-1β/IL-1F2 DuoSet ELISA (enzyme-linked immunosorbent assay) kits (R&D Systems) were used to measure concentrations of MMP-9 and IL-1β, respectively, in lung homogenates per the manufacturer’s protocols. Absorbance at 450 nm was measured using the SpectraMax i3 (Molecular Devices, San Jose, CA, USA). Concentrations of MMP-9 and IL-1β in samples were determined by interpolation from standard curves.
# Differences between treated versus vehicle groups were determined using the Mann-Whitney test and were considered statistically significant when P<0.05. Outliers in the analysis of cytokine and chemokine concentrations were identified using the Grubbs test. No criteria were set for inclusion/exclusion of animals during the experiment or data points during the analysis.
# [4] = female, BALB/c, mouse, epithelial lining fluid (ELF), ELF, single 35 mg/kg SC
# [5] = female, BALB/c, mouse, plasma, single 35 mg/kg SC
# [6] = all doses (10, 30, 100 mg/kg SC)
smiles,measurement,setting,value
CC[C@H]1OC(=O)[C@H](C)[C@@H](O[C@H]2C[C@@](C)(OC)[C@@H](O)[C@H](C)O2)[C@H](C)[C@@H](O[C@@H]2O[C@H](C)C[C@H](N(C)C)[C@H]2O)[C@](C)(O)C[C@@H](C)CN(C)[C@H](C)[C@@H](O)[C@]1(C)O [Azithromycin],"AUC0-24h/Dose, mean","[1]; ELF, single 35 mg/kg SC",0.76 (μg∙h/mL)/(mg/kg)
same,Kp,"[1]; female, BALB/c, mouse, epithelial lining fluid (ELF) / plasma, single 35 mg/kg SC, read-out: AUC ratio for ELF to plasma",~2
same,Tmax,[1]; [4],15 min
same,AUC(0-t),[1]; [4],26700 ± 5780 ng·h/mL
same,Cmax,[1]; [4],2350 ± 1450 ng/mL
same,Tmax,[1]; [5],4.8 min
same,AUC(0-t),[1]; [5],11600 ± 1370 ng·h/mL
same,Cmax,[1]; [5],2330 ± 830 ng/mL
same,distribution from plasma to ELF (penetration into the lung compartment),[1]; single SC dose 35 mg/kg,rapid penetration
same,"AUC0-24h/Dose, mean","[1]; plasma, single 35 mg/kg SC",0.33 (μg∙h/mL)/(mg/kg)
same,cytotoxic effects,human neutrophils,no cytotoxic effects
same,cell viability,J774.2 mouse macrophages,reduced
same,"increase in AUC, first to fifth daily dose",[2]; 500 mg IV daily,61%
same,"increase in maximum observed plasma concentration, first to fifth daily dose",[2]; 500 mg IV daily,8%
same,plasma exposure (AUC),"[2]; 500-mg IV 3-hour infusion, healthy volunteers",5000 ng·h/mL
same,TNF-α concentrations in lung homogenate,[3]; 100 mg/kg SC,no significant effect
same,TNF-α concentrations in lung homogenate,[3]; 10 and 30 mg/kg SC,significant reductions
same,IL-1β concentrations in lung homogenate,[3]; [6],reduced
same,MMP-9 levels in lung homogenate,[3]; [6],not as pronounced as with lefamulin
same,chemokines and GM-CSF in lung homogenate,[3]; [6],significant but not as pronounced
same,IL-6 concentrations in lung homogenate,"[3]; all doses tested (10, 30, 100 mg/kg SC), vs vehicle control",reduced to a lesser extent
same,IL-1β concentrations in lung homogenate,[3]; lowest dose (10 mg/kg SC),significant reduction
same,CCL2 % reduction,[3]; 10 mg/kg,36%
same,CXCL1 % reduction,[3]; 10 mg/kg,44%
same,CXCL2 % reduction,[3]; 10 mg/kg,41%
same,GM-CSF % reduction,[3]; 10 mg/kg,44%
same,IL-1β % reduction,[3]; 10 mg/kg,13%
same,IL-6 % reduction,[3]; 10 mg/kg,51%
same,MMP9 % reduction,[3]; 10 mg/kg,16%
same,TNFα % reduction,[3]; 10 mg/kg,61%
same,CCL2,[3]; 10 mg/kg,4556.27 pg/mL and 3263.22 pg/mL and 1456.64 pg/mL and 3309.90 pg/mL and 1430.47 pg/mL and 5875.00 pg/mL and 1417.32 pg/mL and 3315.08 pg/mL
same,CXCL1,[3]; 10 mg/kg,8286.02 pg/mL and 7278.90 pg/mL and 5769.98 pg/mL and 6100.99 pg/mL and 6284.84 pg/mL and 12400.64 pg/mL and 5305.93 pg/mL and 5666.95 pg/mL
same,CXCL2,[3]; 10 mg/kg,7643.01 pg/mL and 7085.07 pg/mL and 4631.04 pg/mL and 5712.04 pg/mL and 6677.58 pg/mL and 11079.57 pg/mL and 4412.48 pg/mL and 8631.64 pg/mL
same,GM-CSF,[3]; 10 mg/kg,139.66 pg/mL and 134.35 pg/mL and 75.54 pg/mL and 114.95 pg/mL and 86.88 pg/mL and 293.40 pg/mL and 92.13 pg/mL and 119.35 pg/mL
same,IL-1β,[3]; 10 mg/kg,8824 pg/mL and 7408 pg/mL and 8108 pg/mL and 9841 pg/mL and 7312 pg/mL and 9969 pg/mL and 10254 pg/mL and 14453 pg/mL
same,IL-6,[3]; 10 mg/kg,703.95 pg/mL and 429.86 pg/mL and 475.85 pg/mL and 521.70 pg/mL and 613.04 pg/mL and 952.23 pg/mL and 337.40 pg/mL and 749.27 pg/mL
same,MMP9,[3]; 10 mg/kg,2413 pg/mL and 1880 pg/mL and 2467 pg/mL and 2045 pg/mL and 2015 pg/mL and 1705 pg/mL and 1966 pg/mL
same,TNFα,[3]; 10 mg/kg,468.82 pg/mL and 365.25 pg/mL and 396.22 pg/mL and 281.21 pg/mL and 385.93 pg/mL and 406.49 pg/mL and 646.25 pg/mL and 400.08 pg/mL
same,CCL2 Mean,[3]; 10 mg/kg,3078 pg/mL
same,"CXCL1, Mean",[3]; 10 mg/kg,7137 pg/mL
same,"CXCL2, Mean",[3]; 10 mg/kg,6984 pg/mL
same,GM-CSF Mean,[3]; 10 mg/kg,132 pg/mL
same,IL-1β Mean,[3]; 10 mg/kg,9521 pg/mL
same,IL-6 Mean,[3]; 10 mg/kg,598 pg/mL
same,"MMP9, Mean",[3]; 10 mg/kg,2113 pg/mL
same,TNFα Mean,[3]; 10 mg/kg,419 pg/mL
same,CCL2 % reduction,[3]; 30 mg/kg,89%
same,CXCL1 % reduction,[3]; 30 mg/kg,62%
same,CXCL2 % reduction,[3]; 30 mg/kg,66%
same,GM-CSF % reduction,[3]; 30 mg/kg,77%
same,IL-1β % reduction,[3]; 30 mg/kg,12%
same,IL-6 % reduction,[3]; 30 mg/kg,89%
same,MMP9 % reduction,[3]; 30 mg/kg,27%
same,TNFα % reduction,[3]; 30 mg/kg,77%
same,CCL2,[3]; 30 mg/kg,1476.16 pg/mL and 999.58 pg/mL and 556.20 pg/mL and 527.89 pg/mL and 1875.36 pg/mL and 690.08 pg/mL and 698.62 pg/mL and 781.98 pg/mL
same,CXCL1,[3]; 30 mg/kg,6439.29 pg/mL and 6623.20 pg/mL and 4431.51 pg/mL and 4192.30 pg/mL and 6910.31 pg/mL and 3755.15 pg/mL and 2835.10 pg/mL and 5401.78 pg/mL
same,CXCL2,[3]; 30 mg/kg,7207.48 pg/mL and 4769.86 pg/mL and 3209.88 pg/mL and 2485.22 pg/mL and 5075.82 pg/mL and 2214.38 pg/mL and 1941.44 pg/mL and 6143.97 pg/mL
same,GM-CSF,[3]; 30 mg/kg,74.67 pg/mL and 53.86 pg/mL and 46.96 pg/mL and 43.52 pg/mL and 113.19 pg/mL and 45.24 pg/mL and 48.68 pg/mL and 57.31 pg/mL
same,IL-1β,[3]; 30 mg/kg,7544 pg/mL and 10213 pg/mL and 8353 pg/mL and 7459 pg/mL and 10985 pg/mL and 8847 pg/mL and 13576 pg/mL and 10376 pg/mL
same,IL-6,[3]; 30 mg/kg,510.25 pg/mL and 452.87 pg/mL and 220.67 pg/mL and 149.74 pg/mL and 314.17 pg/mL and 173.48 pg/mL and 475.85 pg/mL
same,MMP9,[3]; 30 mg/kg,1204 pg/mL and 2421 pg/mL and 1943 pg/mL and 1913 pg/mL and 2288 pg/mL and 1939 pg/mL and 1874 pg/mL and 1816 pg/mL
same,TNFα,[3]; 30 mg/kg,463.76 pg/mL and 597.19 pg/mL and 177.73 pg/mL and 146.70 pg/mL and 109.09 pg/mL and 202.71 pg/mL and 129.48 pg/mL
same,CCL2 Mean,[3]; 30 mg/kg,951 pg/mL
same,"CXCL1, Mean",[3]; 30 mg/kg,5074 pg/mL
same,"CXCL2, Mean",[3]; 30 mg/kg,4131 pg/mL
same,GM-CSF Mean,[3]; 30 mg/kg,60 pg/mL
same,IL-1β Mean,[3]; 30 mg/kg,9669 pg/mL
same,IL-6 Mean,[3]; 30 mg/kg,306 pg/mL
same,"MMP9, Mean",[3]; 30 mg/kg,1925 pg/mL
same,TNFα Mean,[3]; 30 mg/kg,245 pg/mL
same,CCL2 % reduction,[3]; 100 mg/kg,80%
same,CXCL1 % reduction,[3]; 100 mg/kg,24%
same,CXCL2 % reduction,[3]; 100 mg/kg,11%
same,GM-CSF % reduction,[3]; 100 mg/kg,67%
same,IL-1β % reduction,[3]; 100 mg/kg,12%
same,IL-6 % reduction,[3]; 100 mg/kg,8%
same,MMP9 % reduction,[3]; 100 mg/kg,24%
same,TNFα % reduction,[3]; 100 mg/kg,36%
same,CCL2,[3]; 100 mg/kg,3799.67 pg/mL and 664.18 pg/mL and 1172.90 pg/mL and 962.12 pg/mL and 765.59 pg/mL and 1437.03 pg/mL and 877.71 pg/mL and 698.62 pg/mL
same,CXCL1,[3]; 100 mg/kg,20237.00 pg/mL and 6969.24 pg/mL and 8733.13 pg/mL and 8755.54 pg/mL and 6380.45 pg/mL and 8935.00 pg/mL and 8591.33 pg/mL and 8085.43 pg/mL
same,CXCL2,[3]; 100 mg/kg,18077.64 pg/mL and 6817.72 pg/mL and 11394.66 pg/mL and 9108.54 pg/mL and 6682.24 pg/mL and 11221.65 pg/mL and 9678.57 pg/mL and 10364.59 pg/mL
same,GM-CSF,[3]; 100 mg/kg,162.70 pg/mL and 67.71 pg/mL and 85.13 pg/mL and 72.93 pg/mL and 64.24 pg/mL and 90.38 pg/mL and 45.24 pg/mL
same,IL-1β,[3]; 100 mg/kg,6686 pg/mL and 8985 pg/mL and 9690 pg/mL and 9020 pg/mL and 8022 pg/mL and 10797 pg/mL and 10826 pg/mL and 12960 pg/mL
same,IL-6,[3]; 100 mg/kg,2378.14 pg/mL and 464.36 pg/mL and 635.80 pg/mL and 669.91 pg/mL and 567.42 pg/mL and 703.95 pg/mL and 884.75 pg/mL and 1176.18 pg/mL
same,MMP9,[3]; 100 mg/kg,1836 pg/mL and 1554 pg/mL and 2200 pg/mL and 2220 pg/mL and 2073 pg/mL and 2366 pg/mL and 1528 pg/mL and 2063 pg/mL
same,TNFα,[3]; 100 mg/kg,660.88 pg/mL and 1126.83 pg/mL and 249.05 pg/mL and 935.87 pg/mL and 855.56 pg/mL and 270.54 pg/mL and 656.01 pg/mL and 675.49 pg/mL
same,CCL2 Mean,[3]; 100 mg/kg,1297 pg/mL
same,"CXCL1, Mean",[3]; 100 mg/kg,9586 pg/mL
same,"CXCL2, Mean",[3]; 100 mg/kg,10418 pg/mL
same,GM-CSF Mean,[3]; 100 mg/kg,83 pg/mL
same,IL-1β Mean,[3]; 100 mg/kg,9623 pg/mL
same,IL-6 Mean,[3]; 100 mg/kg,935 pg/mL
same,"MMP9, Mean",[3]; 100 mg/kg,1980 pg/mL
same,TNFα Mean,[3]; 100 mg/kg,679 pg/mL
